Where “and” joins values, the source holds several entries; their conditions need not be identical. Identical values can stand only once.
Assays:
Assay type in all cases: in vivo
wheat powdery mildew = assay: Field test of inducing wheat against infection by powdery mildew fungi; details: 1,000 nm
Protocol: Stems and leaves were sprayed with a 2-amino-3-indolyl butyric acid solution (0.02% by volume of a surfactant Tween 20 was added) at the concentration of 1,000 nm in a filed, sprayed with 0.02% by volume of the surfactant tween 20 as an auxiliary agent control and sprayed with 30 g/mu of ATaiLing as a positive control. Each treatment was repeated three times. The disease grade of the wheat after each treatment was investigated. The disease degree was recorded according to the wheat powdery mildew grading standard in the Guidelines for Field Efficacy Trials of Pesticides (I), and the disease indexes and the relative immune effects were calculated by using the same calculation formula as that of those of the tomato spotted wilt. After the harvested wheat seeds were air-dried, the thousand-grain weights of the wheat seeds after different treatments were measured.
Grading standard of wheat powdery mildew (taking leaves as units): • grade 1: the area of the disease spots accounted 5% or less of that of the whole leaves; • grade 3: the area of the disease spots accounted for 6%-15% of that of the whole leaves; and • grade 5: the area of the disease spots accounted for 16%-25% of that of the whole leaves; and • grade 7: the area of the disease spots accounted for 26%-50% of that of the whole leaves; and • grade 9: the area of the disease spots accounted for 50% or more of that of the whole leaves.

[1] = test system: tea trees (Baiye 1 cutting seedlings); assay: Tea tree under low temperature stress; details: for Cold damage index (%): 24 h at −4° C., recovery 3 d; for PIABS: after 24 h at −4° C.; for Cold damage index reduced by / PIABS of the tea leaves improved by: vs control
Protocol: The test tea trees were Baiye 1 cutting seedlings.
The tea seedlings with consistent growth vigor were selected to be transplanted into a plastic pot with the diameter of 18 cm and placed in a greenhouse at 25° C. and with the humidity of 60%-70% to be adapted for growing for about one week for the experiment. Concentrations at 0 nm, 1 nm, 10 nm, 100 nm and 1,000 nm were set in the experiment. Meanwhile, 0.02% Tween 20 was added as a surfactant. The spraying treatment was the same as that of the ryegrass in example 1. A low temperature stress was performed for 24 h at −4° C. The tea seedlings after the stress was finished were taken out and subjected to a dark treatment at normal temperature for 30 min. The chlorophyll fluorescences of leaves at the tops of the tea seedlings were measured by using the plant efficiency Handy-PEA. Then the tea seedlings were placed in the greenhouse at 25° C. for recovery for 3 d. The cold damage conditions were observed, counted and graded. The cold damage index counting and grading standard was shown in table 13 and a calculation formula was as follows.

[2] = test system: Pseudomonas syringae PstDC3000; assay: Induction of Arabidopsis thaliana against infection by Pseudomonas syringae; details: for Disease index reduced by / Number of the bacteria in each milligram of the leaves reduced by: compared with blank control; for CFU (mg), number of bacteria in each milligram of the leaves / Disease index: 3 d after inoculation
Protocol: 2-amino-3-indolyl butyric acid was dissolved in sterile water and gradiently diluted with sterile water to obtain solutions of 100 nm, 1,000 nm and 10,000 nm. A blank control was additionally set. Meanwhile, 0.02% Tween 20 was added as a surfactant. Pseudomonas syringae PstDC3000 was coated on an LB plate and cultured at 28° C. for 48 h; monoclonal colonies were selected, inoculated into a 50-mL centrifuge tube containing 2 mL of a culture medium, and cultured on a shaking table at 28° C. and 250 rpm, the change of an OD600 value of the bacterial liquid was monitored every 1-2 h, and the culture of the bacteria was stopped before the OD600 value reached 0.8; 1 mL of the bacterial liquid was transferred to a sterile 1.5-mL centrifuge tube for centrifuging at 8,000 rpm for 2 min and the precipitate was collected; the supernatant was removed, the precipitate was washed 3 times with 10 mM of magnesium chloride and centrifuged, and finally the PstDC3000 was resuspended in 10 mM of magnesium chloride enable the OD600 value to reach […] for late use. Arabidopsis thaliana seeds were soaked in 75% alcohol for 3 min, washed with sterile water for 4 times and seeded in a culture dish containing ½ MS culture medium with 12 seeds sown on each culture dish. The ½ MS culture dish carrying the seeds were vernalized at 4° C. for 3 d to break dormancy and then placed in a culture room at 22° C. and the illumination intensity of 100 μEm^−2s^−1 (16 h light/8 h dark). When the seedlings grew for 2 weeks, 2-amino-3-indolyl butyric acid at different concentrations were slowly poured into the culture dish until the whole Arabidopsis thaliana seedlings were submerged for 2-3 min, then the treatment solution was completely poured from the culture dish, and the treatment was performed once every other 24 h for a total of 2 times. The PstDC3000 suspension (OD600=0.01) was inoculated to the Arabidopsis thaliana leaves by using the same submerging method 24 h after the 2nd treatment, and then the culture dish was sealed by a medical breathable adhesive plaster after the inoculation and placed in the culture room for continuous culture. After 3 d, the number of the bacteria subjected to different treatments was determined, the disease condition of the Arabidopsis thaliana was observed, and the disease indexes were calculated by using the same calculation formula as that in example 2.
Grading standard of diseases caused by PstDC3000 (taking leaves as units): • grade 0: the leaf surfaces were free of disease spots; • grade 1: the area of the disease spots accounted for 0%-10% of that of the whole leaves; • grade 2: the area of the disease spots accounted for 10%-25% of that of the whole leaves; • grade 3: the area of the disease spots accounted for 25%-50% of that of the whole leaves; • grade 4: the area of the disease spots accounted for 50%-75% of that of the whole leaves; and • grade 5: the area of the disease spots accounted for 75%-100% of that of the whole leaves.

[3] = compared with the auxiliary agent control
[4] = treatment concentration 1,000 nm
[5] = treatment concentration 10,000 nm

| SMILES | Cold damage index (%) ([1]; 1 nm) | PIABS ([1]; 1 nm) | Cold damage index (%) ([1]; 10 nm) | PIABS ([1]; 10 nm) [c] | Cold damage index (%) ([1]; 100 nm) | PIABS ([1]; 100 nm) | Cold damage index (%) ([1]; 1,000 nm) | PIABS ([1]; 1,000 nm) [a] | Cold damage index reduced by ([1]; 1,000 nm) [%] | PIABS of the tea leaves improved by ([1]; 1,000 nm) [%] | Disease index reduced by ([2]; 100 nm) [%] | Number of the bacteria in each milligram of the leaves reduced by ([2]; 100 nm) [%] | Disease index reduced by ([2]; 1,000 nm) [%] | Number of the bacteria in each milligram of the leaves reduced by ([2]; 1,000 nm) [%] | Disease index reduced by ([2]; 10,000 nm) [%] | Number of the bacteria in each milligram of the leaves reduced by ([2]; 10,000 nm) | CFU (mg), number of bacteria in each milligram of the leaves ([2]; treatment concentration 100 nm) | Disease index ([2]; treatment concentration 100 nm) [b] | CFU (mg), number of bacteria in each milligram of the leaves [2, 4] | Disease index [2, 4] | other results |
| --- | --- | --- | --- | --- | --- | --- | --- | --- | --- | --- | --- | --- | --- | --- | --- | --- | --- | --- | --- | --- | --- |
| CC(c1c[nH]c2ccccc12)C(N)C(=O)O (stereo not shown) | 52 | 26.3 ± 0.04 | 45 | 30.10 ± 1.70 | 35 | 36.51 ± 3.14ab | 28 | 39.36 ± 2.15 | 40 | 52 | 51.25 | 76.75 | 53.92 | 80.97 | 64.42 | 85.039% and 85.03% | 7.44 × 10^5 CFU (mg) | 40.53 ± 1.95 | 6.09 × 10^5 CFU (mg) | 38.31 ± 1.80b | Relative immune effect (%) (wheat powdery mildew): 40.55%; Thousand-grain weight (wheat powdery mildew): 27.39 g; Thousand-grain weight (g) (wheat powdery mildew): 27.39 ± 0.29a g; Relative immune effect improved by (wheat powdery mildew; compared with Altailing control group): 12%; Relative immune effect improved by (wheat powdery mildew; [3]): 40%; Thousand-grain weight increased by (wheat powdery mildew; [3]): 10.80%; Disease index reduced by (wheat powdery mildew; vs auxiliary agent control group): 40.55%; CFU (mg), number of bacteria in each milligram of the leaves [2, 5]: 4.79×10^5 CFU (mg) |
| CC1CCNC1C(=O)O (stereo not shown) [3-methylpyrrolidine-2-carboxylic acid] | 47 | 23.01 ± 0.02 | 43 | 29.65 ± 1.81 | 34 | 35.01 ± 0.27b | 27 | 41.07 ± 0.31 | 48 | 138 | 41.13 | 70.78 | 52.47 | 80.90 | 72.69 | 94.92% and 94.90% | 9.41 × 10^5 CFU (mg) | 50.14 ± 1.54 | 6.15 × 10^5 CFU (mg) | 40.48 ± 0.17c | CFU (mg), number of bacteria in each milligram of the leaves [2, 5]: 1.64×10^5 CFU (mg) |

Reference: patent publication US20250204528A1, “USE OF 2-AMINO-3-INDOLYL BUTYRIC ACID OR 3-METHYLPYRROLIDINE-2-CARBOXYLIC ACID AS PLANT IMMUNITY ELICITOR” (NANJING TIANNONG BIOTECHNOLOGY CO., LTD, priority 2021, published 2025)
